Experimental data reported in patent publication US10703760B2, “Morphic forms of marizomib and uses thereof” (Celgene International II Sàrl, priority 2016, dated 2020).
Converted amounts (≈) assume the structure as drawn.

Tests used:
[1] = Approximate solubility of Sample 4 by solvent aliquot addition, visual inspection; post-solubility storage; format: physicochemical; settings: for solubility: thermodynamic from solid
Description: Weighed samples of MRZ, Sample 4 were treated with aliquots of the test solvents or solvent mixtures at ambient temperature. Complete dissolution of the test material was determined by visual inspection. Solubility was estimated based on the total solvent volume used to provide complete dissolution. The actual solubility may be greater than the value calculated because of the use of solvent aliquots that were too large or due to a slow rate of dissolution. If complete dissolution was not achieved during the experiment, the solubility is expressed as “less than”. If complete dissolution was achieved by only one aliquot addition, the value is reported as “larger than”. As set forth in Table-9, the ratio of solvent mixtures are given by volume. Solubilities are estimated at ambient temperature and reported to the nearest mg/mL; if complete dissolution was not achieved, the value is reported as “<”; the actual solubility may be greater than the reported value due to the use of solvent aliquots that were too large or due to a slow rate of dissolution. Post-solubility samples were stored at 2-8° C. for 15-16 days followed by 1 day at ambient storage before visual inspection for precipitation. Post-solubility samples were visually inspected after 2-3 days of ambient storage. Formation system A is: 55% propylene glycol+5% ethanol+40% citrate buffer (10 mM; pH 5). Formation system B is: 14/86 (v/v) H2O/tert-butyl alcohol containing 30 mg/mL sucrose, and titrated with HCl to pH 3.2±0.2.

[2] = Dynamic vapor sorption (DVS) of Sample 4; format: physicochemical
From the text: Prior to any testing, Sample 4 was characterized by XRPD, TGA, DSC, 1HNMR, and DVS. The results are given below in Table-8. The Corresponding figure numbers are given in the right hand column.

C[C@@]12OC(=O)[C@]1([C@@H](O)[C@@H]1C=CCCC1)NC(=O)[C@@H]2CCCl [Sample 4, marizomib]
solubility ([1]; aqueous with cosolvent or surfactant or cyclodextrin, Formulation System A (55% propylene glycol + 5% EtOH + 40% citrate buffer 10 mM pH 5), ambient temperature): < 1 mg/mL
solubility ([1]; aqueous with cosolvent or surfactant or cyclodextrin, Formulation System B (14/86 v/v H2O/tBA, 30 mg/ml sucrose, pH 3.2), ambient temperature): 6 mg/mL (≈ 19.1 mM)
solubility ([1]; organic solvent or mixture, 1-propanol, ambient temperature): 2 mg/mL (≈ 6.37 mM)
solubility ([1]; organic solvent or mixture, 2,2,2-trifluoroethanol, ambient temperature): < 1 mg/mL
solubility ([1]; organic solvent or mixture, 2-Me THF, ambient temperature): 32 mg/mL (≈ 102 mM)
solubility ([1]; organic solvent or mixture, 20:80 2-MeTHF/MeOAc (v/v), ambient temperature): 34 mg/mL (≈ 108 mM)
solubility ([1]; organic solvent or mixture, 20:80 CHCl3/DCM (v/v), ambient temperature): 3 mg/mL (≈ 9.56 mM)
solubility ([1]; organic solvent or mixture, 20:80 MEK/IPA (v/v), ambient temperature): 10 mg/mL (≈ 31.9 mM)
solubility ([1]; organic solvent or mixture, 20:80 MEK/MIBK (v/v), ambient temperature): 12 mg/mL (≈ 38.2 mM)
solubility ([1]; organic solvent or mixture, 20:80 NMP/1-propanol (v/v), ambient temperature): 19 mg/mL (≈ 60.6 mM)
solubility ([1]; organic solvent or mixture, 20:80 NMP/IPA (v/v), ambient temperature): 19 mg/mL (≈ 60.6 mM)
solubility ([1]; organic solvent or mixture, 20:80 THF/nitromethane (v/v), ambient temperature): 15 mg/mL (≈ 47.8 mM)
solubility ([1]; organic solvent or mixture, 25:75 ACN/MTBE (v/v), ambient temperature): 10 mg/mL (≈ 31.9 mM)
solubility ([1]; organic solvent or mixture, 25:75 DMF/anisole (v/v), ambient temperature): 17 mg/mL (≈ 54.2 mM)
solubility ([1]; organic solvent or mixture, 50:50 EtOAc/cyclohexane (v/v), ambient temperature): 4 mg/mL (≈ 12.7 mM)
solubility ([1]; organic solvent or mixture, 50:50 EtOAc/isooctane (v/v), ambient temperature): 2 mg/mL (≈ 6.37 mM)
solubility ([1]; organic solvent or mixture, 50:50 MeOH/Et2O (v/v), ambient temperature): 21 mg/mL (≈ 66.9 mM)
solubility ([1]; organic solvent or mixture, 50:50 THF/hexanes (v/v), ambient temperature): 21 mg/mL (≈ 66.9 mM)
solubility ([1]; organic solvent or mixture, 50:50 acetone/heptane (v/v), ambient temperature): 12 mg/mL (≈ 38.2 mM)
solubility ([1]; organic solvent or mixture, 50:50 acetone/iso-octane (v/v), ambient temperature): 12 mg/mL (≈ 38.2 mM)
solubility ([1]; organic solvent or mixture, ACN, ambient temperature): 10 mg/mL (≈ 31.9 mM)
solubility ([1]; organic solvent or mixture, CHCl3, ambient temperature): 2 mg/mL (≈ 6.37 mM)
solubility ([1]; organic solvent or mixture, DCM, ambient temperature): 2 mg/mL (≈ 6.37 mM)
solubility ([1]; organic solvent or mixture, DMSO, ambient temperature): > 83 mg/mL
solubility ([1]; organic solvent or mixture, EtOAc, ambient temperature): 15 mg/mL (≈ 47.8 mM)
solubility ([1]; organic solvent or mixture, Formic acid, ambient temperature): 15 mg/mL (≈ 47.8 mM)
solubility ([1]; organic solvent or mixture, IPA, ambient temperature): 6 mg/mL (≈ 19.1 mM)
solubility ([1]; organic solvent or mixture, MEK, ambient temperature): 33 mg/mL (≈ 105 mM)
solubility ([1]; organic solvent or mixture, MIBK, ambient temperature): 11 mg/mL (≈ 35.1 mM)
solubility ([1]; organic solvent or mixture, MeOAc, ambient temperature): 20 mg/mL (≈ 63.7 mM)
solubility ([1]; organic solvent or mixture, NMP, ambient temperature): 5 mg/mL (≈ 15.9 mM)
solubility ([1]; organic solvent or mixture, THF, ambient temperature): 49 mg/mL (≈ 156 mM)
solubility ([1]; organic solvent or mixture, [EMIm][Cl], ambient temperature): < 2 mg/mL
solubility ([1]; organic solvent or mixture, [EMIm][NTF2], ambient temperature): 1 mg/mL (≈ 3.19 mM)
solubility ([1]; organic solvent or mixture, acetic acid, ambient temperature): 10 mg/mL (≈ 31.9 mM)
solubility ([1]; organic solvent or mixture, acetone, ambient temperature): 39 mg/mL (≈ 124 mM)
solubility ([1]; organic solvent or mixture, anisole, ambient temperature): 2 mg/mL (≈ 6.37 mM)
solubility ([1]; organic solvent or mixture, cyclohexanone, ambient temperature): 22 mg/mL (≈ 70.1 mM)
solubility ([1]; organic solvent or mixture, dioxane, ambient temperature): 20 mg/mL (≈ 63.7 mM)
solubility ([1]; organic solvent or mixture, nitromethane, ambient temperature): 2 mg/mL (≈ 6.37 mM)
solubility ([1]; organic solvent or mixture, pyridine, ambient temperature): 36 mg/mL (≈ 115 mM)
solubility ([1]; organic solvent or mixture, tert-butanol, ambient temperature): 3 mg/mL (≈ 9.56 mM)
Precipitates formed during storage? ([1]; post-solubility sample in 1-propanol): no
Precipitates formed during storage? ([1]; post-solubility sample in 2-Me THF): no
Precipitates formed during storage? ([1]; post-solubility sample in 20:80 2-MeTHF/MeOAc): no
Precipitates formed during storage? ([1]; post-solubility sample in 20:80 CHCl3/DCM): no
Precipitates formed during storage? ([1]; post-solubility sample in 20:80 MEK/IPA): no
Precipitates formed during storage? ([1]; post-solubility sample in 20:80 MEK/MIBK): no
Precipitates formed during storage? ([1]; post-solubility sample in 20:80 NMP/1-propanol): no
Precipitates formed during storage? ([1]; post-solubility sample in 20:80 NMP/IPA): no
Precipitates formed during storage? ([1]; post-solubility sample in 20:80 THF/nitromethane): no
Precipitates formed during storage? ([1]; post-solubility sample in 25:75 ACN/MTBE): no
Precipitates formed during storage? ([1]; post-solubility sample in 25:75 DMF/anisole): no
Precipitates formed during storage? ([1]; post-solubility sample in 50:50 EtOAc/cyclohexane): no
Precipitates formed during storage? ([1]; post-solubility sample in 50:50 EtOAc/isooctane): no
Precipitates formed during storage? ([1]; post-solubility sample in 50:50 MeOH/Et2O): no
Precipitates formed during storage? ([1]; post-solubility sample in 50:50 THF/hexanes): no
Precipitates formed during storage? ([1]; post-solubility sample in 50:50 acetone/heptane): no
Precipitates formed during storage? ([1]; post-solubility sample in 50:50 acetone/iso-octane): no
Precipitates formed during storage? ([1]; post-solubility sample in ACN): no
Precipitates formed during storage? ([1]; post-solubility sample in CHCl3): yes
Precipitates formed during storage? ([1]; post-solubility sample in DCM): no
Precipitates formed during storage? ([1]; post-solubility sample in DMSO): no
Precipitates formed during storage? ([1]; post-solubility sample in EtOAc): no
Precipitates formed during storage? ([1]; post-solubility sample in Formic acid): no
Precipitates formed during storage? ([1]; post-solubility sample in Formulation System B): no
Precipitates formed during storage? ([1]; post-solubility sample in IPA): no
Precipitates formed during storage? ([1]; post-solubility sample in MEK): yes (small amount)
Precipitates formed during storage? ([1]; post-solubility sample in MIBK): no
Precipitates formed during storage? ([1]; post-solubility sample in MeOAc): no
Precipitates formed during storage? ([1]; post-solubility sample in NMP): no
Precipitates formed during storage? ([1]; post-solubility sample in THF): no
Precipitates formed during storage? ([1]; post-solubility sample in acetic acid): no
Precipitates formed during storage? ([1]; post-solubility sample in acetone): no
Precipitates formed during storage? ([1]; post-solubility sample in anisole): no
Precipitates formed during storage? ([1]; post-solubility sample in cyclohexanone): no
Precipitates formed during storage? ([1]; post-solubility sample in dioxane): no
Precipitates formed during storage? ([1]; post-solubility sample in nitromethane): no
Precipitates formed during storage? ([1]; post-solubility sample in pyridine): no
Precipitates formed during storage? ([1]; post-solubility sample in tert-butanol): no
DVS weight change ([2]; 5-75% RH): +0.039 wt % (5-75% RH)
DVS weight change ([2]; 75-95% RH): +1.158 wt % (75-95% RH)
DVS weight change ([2]; 95-5% RH): −1.276 wt % (95-5% RH)
DVS weight change ([2]; at 5% RH): −0.035 wt % (at 5% RH)
